Measurements: patent publication US9850283B2, “Macrocyclic inhibitors of the PD-1/PD-L1 and CD80(B7-1)/PD-L1 protein/protein interactions” (BRISTOL-MYERS SQUIBB COMPANY, priority 2013, dated 2017)
Where two headings read alike, the source gives them in different places. Starred links: 1 amine or outer side, 2 acyl side, 3 side chain; linkers in the order of their positions; H or OH if unused. Positions of bridges follow the written chain, without caps; N, C: chain ends. Non-standard residues stand in square brackets, D forms with d. Residues, ends and D or L forms follow the SMILES beside them. Phe(3,4,5-F3) = N[C@@H](Cc1cc(F)c(F)c(F)c1)C(=O)O; d(cisHyp) = O=C(O)[C@H]1C[C@@H](O)CN1; Phe(2-Me) = Cc1ccccc1C[C@H](N)C(=O)O; Bta = N[C@@H](Cc1csc2ccccc12)C(=O)O; Hyp = O=C(O)[C@@H]1C[C@@H](O)CN1; NMeF = CN[C@@H](Cc1ccccc1)C(=O)O; X4 = O=C([C@H]1COCCN1[*:1])[*:2]; NMeNle = CCCC[C@H](NC)C(=O)O; NMeA = CN[C@@H](C)C(=O)O; Orn = NCCC[C@H](N)C(=O)O; Dab = NCC[C@H](N)C(=O)O; Dap = NC[C@H](N)C(=O)O; Sar = CNCC(=O)O

How the values were obtained:
[1] = target: T1, LK35.2-hPD-L1 cells / PE-labeled PD-1-Ig (Homo sapiens, UniProt Q9NZQ7); experiment: LK35.2-hPD-L1 cell binding high-content screening assay; type: cell-based
T1 construct: expressed in transfected cells; host or cells: LK35.2 mouse B cell line
T1 sequence (Q9NZQ7 19-290): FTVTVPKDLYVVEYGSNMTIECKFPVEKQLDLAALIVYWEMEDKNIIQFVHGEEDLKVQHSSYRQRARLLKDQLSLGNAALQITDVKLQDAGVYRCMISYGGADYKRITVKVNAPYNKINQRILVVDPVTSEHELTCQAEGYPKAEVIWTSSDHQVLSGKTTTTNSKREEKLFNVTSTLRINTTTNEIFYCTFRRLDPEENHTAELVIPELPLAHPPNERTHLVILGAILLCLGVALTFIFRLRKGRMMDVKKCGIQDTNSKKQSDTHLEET
Summary of the method: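 Mouse LK35.2 B cells stably overexpressing human PD-L1 were cultured overnight in RPMI with 10% FCS, then given compound and PE-labeled human PD-1-Ig (1 nM final) for 1 h at 37 °C. After three dPBS washes, bound fluorescence was quantified by high-content imaging.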

Human PD-L1/PD-1 = target: T2, Human PD-L1/PD-1 (Homo sapiens, UniProt Q9NZQ7); experiment: HTRF PD-1-Ig/PD-L1-His binding assay (human PD-L1)
T2 construct: made in house; host or cells: HEK293T
T2 sequence (Q9NZQ7 with tags, fused parts or gaps): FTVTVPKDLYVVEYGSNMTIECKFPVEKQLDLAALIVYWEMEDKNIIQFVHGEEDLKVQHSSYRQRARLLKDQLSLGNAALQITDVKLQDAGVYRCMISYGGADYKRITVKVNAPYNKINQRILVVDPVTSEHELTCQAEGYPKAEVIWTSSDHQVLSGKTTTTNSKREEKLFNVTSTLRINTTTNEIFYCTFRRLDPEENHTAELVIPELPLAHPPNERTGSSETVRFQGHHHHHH
Summary of the method: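 Soluble PD-1-Ig binding to PD-L1-His measured by HTRF in dPBS with 0.1% BSA and 0.05% Tween-20. Detection used europium cryptate anti-Ig antibody (1 nM final) and APC anti-His antibody (20 nM final) added on top of the binding reaction.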

[2] = cell binding assay, cell line not given, cluster symbol, read-out: CBA IC50 cluster
[3] = cluster symbol, read-out: HTRF IC50 cluster
[4] = cluster symbol, cell line of CBA not given (LK35.2-hPD-L1 or 293T-hPD-L1), read-out: CBA IC50 cluster

Row | Compound | IC50 [1, 2] | IC50 (Human PD-L1/PD-1; [3]) | IC50 [1, 4] | IC50 ([1]; cell line of CBA not given (LK35.2-hPD-L1 or 293T-hPD-L1), read-out: CBA IC50 value) | IC50 (Human PD-L1/PD-1; read-out: HTRF IC50 value)
1 | CCCC[C@H]1C(=O)N(C)[C@@H](CCCC)C(=O)N[C@@H](CCCNC(=N)N)C(=O)N[C@H](C(=O)NCC(N)=O)CSCC(=O)N[C@@H](Cc2ccc(O)cc2)C(=O)N(C)[C@@H](C)C(=O)N[C@@H](CC(N)=O)C(=O)N[C@@H](Cc2cnc[nH]2)C(=O)N2CCC[C@H]2C(=O)N[C@@H](CC(C)C)C(=O)N2CCC[C@H]2C(=O)N[C@@H](Cc2c[nH]c3ccccc23)C(=O)N[C@@H](CO)C(=O)N[C@@H](Cc2csc3ccccc23)C(=O)N1C [Example 1052] ({CH2CO}-Y[NMeA]NHPLPWS[Bta][NMeNle][NMeNle]RCG-NH2; thioether N-14) |  | > 30.5 nM | > 74.3 nM |  | 
2 | CCCC[C@H]1C(=O)N(C)[C@@H](CCCC)C(=O)N[C@@H](CCCNC(=N)N)C(=O)NC(C(=O)NCC(N)=O)CSCC(=O)N[C@@H](Cc2ccccc2)C(=O)N(C)[C@@H](C)C(=O)N[C@@H](CC(N)=O)C(=O)N2CCC[C@H]2C(=O)N[C@@H](Cc2cnc[nH]2)C(=O)N[C@@H](CC(C)C)C(=O)N[C@@H](CCNC(=O)C2CCCCC2)C(=O)N[C@@H](Cc2c[nH]c3ccccc23)C(=O)N[C@@H](CO)C(=O)N[C@@H](Cc2c[nH]c3ccccc23)C(=O)N1C (some centres unmarked) [Example 1021] |  |  |  | 262 nM | 180 nM
3 | CCCC[C@H]1C(=O)N(C)[C@@H](CCCC)C(=O)N[C@@H](CCCNC(=N)N)C(=O)N[C@H](C(=O)NCC(N)=O)CSCC(=O)N[C@@H](Cc2ccc(O)cc2)C(=O)N(C)[C@@H](C)C(=O)N[C@@H](CC(N)=O)C(=O)N2CCC[C@H]2C(=O)N[C@@H](CN)C(=O)N[C@@H](CC(C)C)C(=O)N2CCC[C@H]2C(=O)N[C@@H](Cc2c[nH]c3ccccc23)C(=O)N[C@@H](CO)C(=O)N[C@@H](Cc2c[nH]c3ccccc23)C(=O)N1C [Example 1113] ({CH2CO}-Y[NMeA]NP[Dap]LPWSW[NMeNle][NMeNle]RCG-NH2; thioether N-14) |  | 0.385 to 6.74 nM | 0.158 to 4.71 nM |  | 

Continued, values first:

Row | IC50 [1, 2] | IC50 (Human PD-L1/PD-1; [3]) | IC50 [1, 4] | IC50 ([1]; cell line of CBA not given (LK35.2-hPD-L1 or 293T-hPD-L1), read-out: CBA IC50 value) | IC50 (Human PD-L1/PD-1; read-out: HTRF IC50 value) | Compound
4 | 0.158 to 4.71 nM | 0.385 to 6.74 nM |  |  |  | CCCC[C@H]1C(=O)N(C)[C@@H](CCCC)C(=O)N[C@@H](Cc2cccnc2)C(=O)N[C@H](C(=O)NCC(N)=O)CSCC(=O)N[C@@H](Cc2ccc(O)cc2)C(=O)N(C)[C@@H](C)C(=O)N[C@@H](CC(N)=O)C(=O)N2CCC[C@H]2C(=O)N[C@@H](Cc2cnc[nH]2)C(=O)N[C@@H](CC(C)C)C(=O)N2C[C@H](O)C[C@H]2C(=O)N[C@@H](Cc2c[nH]c3ccccc23)C(=O)N[C@@H](CO)C(=O)N[C@@H](Cc2c[nH]c3ccccc23)C(=O)N1C [Example 7033]
5 | 0.158 to 4.71 nM | 0.385 to 6.74 nM |  |  |  | CCCC[C@H]1C(=O)N2C[C@H](O)C[C@@H]2C(=O)N[C@@H](CC(=O)O)C(=O)N[C@@H](C(C)C)C(=O)N(C)[C@@H](Cc2ccccc2)C(=O)N[C@@H](CCC(=O)O)C(=O)N2CCOC[C@@H]2C(=O)N[C@@H](Cc2c[nH]c3ccccc23)C(=O)N[C@@H](Cc2ccc(O)cc2)C(=O)N[C@@H](CCCN)C(=O)N[C@H](C(=O)NCC(N)=O)CSCC(=O)N[C@@H](Cc2cc(F)c(F)c(F)c2)C(=O)N(C)[C@@H](Cc2ccccc2)C(=O)N1C [Example 3599] ({CH2CO}-[Phe(3,4,5-F3)][NMeF][NMeNle][d(cisHyp)]DV[NMeF]E[X4]WY[Orn]CG-NH2; thioether N-13)
6 |  | 0.385 to 6.74 nM | 0.158 to 4.71 nM |  |  | CCCC[C@H]1C(=O)N(C)[C@@H](CCCC)C(=O)N[C@@H](CCCN)C(=O)N[C@H](C(=O)NCC(N)=O)CSCC(=O)N[C@@H](Cc2ccc(O)cc2)C(=O)N(C)[C@@H](C)C(=O)N[C@@H](CC(N)=O)C(=O)N2CCC[C@H]2C(=O)N[C@@H](CN)C(=O)N[C@@H](CC(C)C)C(=O)N2C[C@H](O)C[C@H]2C(=O)N[C@@H](Cc2c[nH]c3ccccc23)C(=O)N[C@@H](CCN)C(=O)N[C@@H](Cc2csc3ccccc23)C(=O)N1C [Example 1194] ({CH2CO}-Y[NMeA]NP[Dap]L[Hyp]W[Dab][Bta][NMeNle][NMeNle][Orn]CG-NH2; thioether N-14)
7 |  | > 30.5 nM | > 74.3 nM |  |  | CCCC[C@H]1C(=O)N(C)CC(=O)N[C@@H](CC(=O)O)C(=O)N[C@@H](C(C)C)C(=O)N(C)[C@@H](Cc2ccccc2)C(=O)N[C@@H](Cc2ccc(O)cc2)C(=O)N(C)CC(=O)N[C@@H](Cc2c[nH]c3ccccc23)C(=O)N[C@@H](Cc2ccc(O)cc2)C(=O)N[C@@H](CC(C)C)C(=O)N[C@H](C(=O)NCC(N)=O)CSCC(=O)N[C@@H](Cc2ccccc2C)C(=O)N(C)[C@@H](Cc2ccccc2)C(=O)N1C [Example 3105] ({CH2CO}-[Phe(2-Me)][NMeF][NMeNle][Sar]DV[NMeF]Y[Sar]WYLCG-NH2; thioether N-13)
